From patent US11229649B2, “Methods for treating cryptosporidiosis using triazolopyridazines” (University of Vermont and State Agricultural College, priority 2015, dated 2022)
Entries after “also recorded” stand apart in the source; their conditions may differ. Where two headings read alike, the source gives them in different places. Values belong to the molecule of their own block, whether it stands above or below them.

Columns and labels:
C. parvum (Iowa strain) = assay: NOD SCID gamma immunocompromised mouse model of cryptosporidiosis (fecal oocyst shedding by qPCR); assay type: in vivo, Cryptosporidium parvum
Text: A NOD SCID gamma mouse model was used for in vivo testing of confirmed screening hits. NOD SCID gamma mice (Jackson Laboratories) develop Cryptosporidium parvum infection following oral gavage that is characterized by persistent infection of the small intestinal and cecal epithelium. The mice remain asymptomatic and gain weight normally. Infection is established by oral gavage of 1×10^4 C. parvum (Iowa strain) oocysts on day −6. Fecal parasite shedding is quantified by quantitative PCR of genomic DNA, using a standard curve generated by spiking oocysts into fecal samples from uninfected mice. Fecal oocyst shedding reliably becomes detectable at day 1 (1 week after infection). Experimental compounds are administered by oral gavage of 30 mg/kg in DMSO:1% HPMC (5:95) twice daily for 4 days. Parasite shedding is compared to that for infected mice treated with drug carrier alone (i.e. DMSO:1% HPMC (5:95)).
Results for treatment of C. parvum infected NOD SCID gamma mice with DMSO or selected MMV Malaria Box screening hits with confirmed in vitro activity given by oral gavage of 30 mg/kg twice daily on days 1-4 can be seen in FIG. 2. Cryptosporidium parvum infection was established on day −6. Parasite shedding is detectable in all animals on day 1. […] Other compounds and DMSO had no effect. Data shown are the mean and SE for parasites detected/mg of feces (n=4 animals per treatment group).
A repeat of the experiment presented in FIG. 2 showing efficacy of MMV665917 in the NOD SCID gamma mouse model is presented in FIG. 5. […] For this experiment, NOD SCID gamma mice were infected on day −6 by oral gavage of C. parvum oocysts, shedding was detected at day 0 prior to compound dosing, compounds or vehicle were dosed on days 0-6 as indicated, and mice were maintained for one week following cessation of treatment. Data shown are the mean and SE for the number of oocysts/mg stool detected by real time PCR of the feces on the indicated day (four mice per experimental group).

Cryptosporidium = conditions: cited from earlier work
C. parvum = C. parvum growth inhibition in HCT-8 cells, in vitro dose response (immunofluorescence); assay type: cell-based; conditions: Cryptosporidium parvum; C. parvum in HCT-8 cells; plate control of the screen; read-out: 90% inhibitory concentration (IC90)
Description: Materials and Methods: Cell culture and Cryptosporidium infections: The high throughput screen for C. parvum growth inhibitors was carried out using human ileocecal adenocarcinoma (HCT-8) cells (ATCC) maintained in RPMI 1640 medium with HEPES, sodium pyruvate (1 mM) and L-glutamate with 10% horse serum (ATCC) supplemented with 120 U/mL penicillin and 120 μg/mL streptomycin. HCT-8 cells were grown to confluence in 384-well, tissue culture-treated, black-walled, clear-bottom microwell plates (BD Falcon). […]
Infected monolayers were washed three times with PBS containing 111 mM D-galactose using an EL406 automated plate washer (Biotek), fixed with 4% paraformaldehyde, permeabilized with 0.25% Triton X-100 in PBS, and then blocked with 4% bovine serum albumin (BSA). Vegetative forms of C. parvum were detected by the addition of biotinylated Vicia villosa lectin (VVL; Vector Laboratories) and streptavidin-conjugated Alexa Fluor 568 (Invitrogen) diluted in PBS with 1% BSA and 0.1% Tween 20. […]
ImageJ outputs were imported into Microsoft Excel for data organization and analysis. Percent inhibition was calculated (equation 1) for each well in order to normalize the data and to facilitate the combination of data from individual biological replicates. […]

C. parvum Iowa strain = assay: Static or cidal assay: C. parvum persistence in HCT-8 cells at multiples of the EC90; assay type: cell-based, Cryptosporidium parvum; conditions: compound added 24 hours after infection of HCT-8 cells (FIG. 7)
Description: HCT-8 cell monolayers are infected and parasites are allowed to replicate for 24 hours before addition of experimental drug compounds. Parasite numbers are then measured at different time points following compound addition by epifluorescence microscopy, using the same method as used in FIG. 1.
To assess if MMV665917 is cidal or static for C. parvum and determine the concentration of compound required to maximize the rate of parasite elimination, C. parvum persistence in HCT-8 colonic carcinoma cells was assayed in the presence of increasing multiples of the in vitro EC90. Briefly, the assay infects HCT-8 intestinal epithelial cells with the C. parvum Iowa strain as in Example 1. Parasites are then allowed to develop for 24 hours prior to the addition of the indicated concentration of experimental compounds (time 0 in the graphs above). At the indicated times following compound addition, samples are then fixed, the host cells and parasites are fluorescently stained, and parasites are enumerated by automated epifluorescence microscopy and image process as described in Example 1.

[1] = In vitro plasma/blood stability and whole blood-to-plasma ratio; assay type: in vitro ADME, rat; conditions: 37° C.
Description: In Vitro Determination of Plasma/Blood Stability and Whole Blood-to-Plasma Ratio. MMV665917 was spiked into fresh heparinized whole blood (collected from male Sprague Dawley rats) or plasma of a corresponding volume (which acted as a matrix control) to an initial nominal concentration of 500 ng/mL. As a whole blood assay for the compound was not available, the concentration of MMV665917 in the spiked plasma (i.e. matrix control) was used as a surrogate measurement of the spiked whole blood concentration. Whole blood samples were incubated at 37° C. for up to 240 min after which plasma and erythrocytes were separated by centrifugation prior to determination of plasma concentrations by LC-MS. Whole blood-to-plasma partitioning ratios (B/P) were obtained by dividing the measured concentration in the plasma control sample by the concentration measured in plasma following centrifugation of whole blood.

[2] = Mouse plasma concentration, single oral dose and simulated BID dosing; assay type: in vivo
Description: Compounds were dosed as indicated either orally by oral gavage or intravenously, and serum samples were collected at the indicated time points. The MMV665917 plasma concentration was measured by LC-MS/MS.
(§1) Mouse serum concentrations measured from a single 55 mg/kg oral dose of MMV665917 (see above figure) were used to simulate the mouse serum concentrations following BID dosing of either 30 mg/kg or 60 mg/kg. The measured calf plasma concentration following a single 22 mg/kg oral dose is also shown. Note that a minimum concentration of EC90 was required for parasite elimination in vitro, and the rate of parasite elimination in vitro was maximized at 3× the EC90 concentration.
as §1, with “The actual and simulated mouse and calf plasma concentrations for MMV665917, correlated to the EC90 and 3×EC90 concentrations are shown in FIG. 9. Mouse” for “Mouse”, “(FIG. 9)” for “(see above figure)”

[3] = Pharmacokinetics in male Sprague Dawley rats (IV and oral); assay type: in vivo, rat
Description: The pharmacokinetics of MMV665917 were studied in overnight-fasted male Sprague Dawley rats that had access to water ad libitum throughout the pre- and post-dose sampling period, and access to food was re-instated 4 h (hour) post-dose. MMV665917 was administered intravenously as a 10 min (minute) constant rate infusion via an indwelling jugular vein cannula (1 mL per rat, n=2 rats) and orally by gavage (10 mL/kg per rat, n=2 rats). Samples of arterial blood and total urine were collected up to 24 h post-dose. Arterial blood was collected directly into borosilicate vials (at 4° C.) containing heparin, Complete® (a protease inhibitor cocktail), potassium fluoride, and EDTA to minimise potential for ex vivo degradation of test compound in blood/plasma samples. Once collected, blood samples were centrifuged, supernatant plasma was removed and stored frozen (−20° C.) until analysis by LC-MS. IV Formulation. MMV665917 was dissolved in propylene glycol and ethanol before Milli-Q water was added producing a clear solution. The formulation was filtered through a 0.22 μm syringe filter prior to dosing, and the measured concentration of compound the filtered solution was 0.24 mg/mL. Oral Formulation. MMV665917 was wet milled in HPMC-SV in an agate mortar and sonicated for 10 minutes producing a uniform suspension. The bulk formulation was mixed by inverting the tubes prior to drawing each dosing volume and the average measured concentration of compound in aliquots (n=3) of formulation was 0.32 mg/mL (range 0.28-0.37 mg/mL).

[4] = 30 mg/kg twice daily oral gavage, days 1-4 (FIG. 2)

Compound: NC[C@@H]1O[C@H](O[C@H]2[C@@H](O)[C@H](O[C@@H]3[C@@H](O)[C@H](N)C[C@H](N)[C@H]3O[C@H]3O[C@H](CO)[C@@H](O)[C@H](O)[C@H]3N)O[C@@H]2CO)[C@H](N)[C@@H](O)[C@@H]1O [paromomycin, reference compound]
relapse after treatment cessation (C. parvum (Iowa strain); 1000 mg/kg twice daily, positive control (FIG. 5)): relapsed quickly after treatment cessation

IC90 (C. parvum): 6.6 µM
Compound: CC(=O)Oc1ccccc1C(=O)Nc1ncc([N+](=O)[O-])s1 [nitazoxanide]
efficacy in cryptosporidiosis (Cryptosporidium; AIDS patients / immunocompromised people): lacks activity
efficacy in cryptosporidiosis (Cryptosporidium; AIDS patients / immunocompromised people, listed as Nitazoxanide): no more effective than placebo
efficacy in cryptosporidiosis (Cryptosporidium; children): partial efficacy
static or cidal for C. parvum (C. parvum Iowa strain): static
activity in the NOD SCID gamma mouse model (C. parvum (Iowa strain); dose not stated): lacks activity

stability in rat plasma and whole blood ([1]; up to 240 min, 500 ng/mL): stable
blood plasma ratio at 500 ng/mL ([1]; male, Sprague Dawley, fresh heparinized whole blood, rat blood, read-out: apparent in vitro whole blood to plasma partitioning ratio (B/P)): 1.1
intestinal absorption ([2]; mouse (FIG. 4)): slow
serum half-life ([2]; mouse (FIG. 4)): prolonged
systemic exposure ([2]; mouse (FIG. 4)): moderate
time to peak serum concentration ([2]; mouse, single dose (FIG. 4)): 6 h
half-life ([3]; male, Sprague Dawley, rat, plasma, 0.24 mg per rat, rats, IV administration, read-out: apparent terminal half-life): 3 to 4 h
bioavailability ([3]; male, Sprague Dawley, rat, plasma, po, 3.2 mg/kg, rats, oral administration, read-out: apparent oral bioavailability): 24 to 43%
apparent volume of distribution ([3]; rats, IV administration): moderate
in vivo clearance ([3]; rats, IV administration): low
time plasma concentrations remained above the analytical LLQ ([3]; rats, IV administration): 16 h
fraction of the dose recovered in urine as intact compound ([3]; rats, IV, 24 h sampling period): approximately 25%
absorption ([3]; rats, oral administration): slowly absorbed
time of maximum plasma concentrations ([3]; rats, oral administration): 5 h post-dose
Compound: O=C(Nc1ccc(Cl)cc1)N1CCN(c2ccc3nncn3n2)CC1 [MMV665917]
plasma/serum concentration relative to the EC90 / 3×EC90 ([2]; mouse, 30 mg/kg BID, simulated from single 55 mg/kg oral dose): exceeds the EC90 for just over ½ the dosing interval; also recorded: not attained
static or cidal for C. parvum (C. parvum Iowa strain): cidal
efficacy across the two experiments (C. parvum (Iowa strain); 30 mg/kg BID (effective in FIG. 2, ineffective in FIG. 5)): variable efficacy; also recorded: variably efficacious
parasite shedding (oocysts/mg feces) (C. parvum (Iowa strain); [4]): significantly reduced parasite shedding
persistence of reduced parasite shedding following cessation of treatment (C. parvum (Iowa strain); [4]): > 3 days
efficacy on C. parvum shedding, repeat experiment (C. parvum (Iowa strain); 30 mg/kg twice daily oral gavage, seven days (FIG. 5)): inactive; also recorded: not effective
efficacy on C. parvum shedding, repeat experiment (C. parvum (Iowa strain); 60 mg/kg twice daily oral gavage, seven days (FIG. 5)): eliminated detection of C. parvum shedding in the feces; also recorded: cured; also recorded: curative
relapse over the week following cessation of treatment (C. parvum (Iowa strain); 60 mg/kg twice daily, seven days (FIG. 5)): no relapse was observed
haemolysis in plasma ([3]; rat, in vivo, iv): Evidence of haemolysis was observed
adverse reactions or compound related side effects ([3]; rats, following IV or oral administration): No adverse reactions or compound related side effects were observed
apparent terminal half-life ([3]; rats, oral administration): consistent with that observed after IV dosing
